Laboratory results from patent US7994311B2, “Fluorescent chemosensors for metals based on dipyrrins” (priority 2006, dated 2011).

Tests used:
[1] = Fluorescence response of (4) to Zn^2+ concentration; format: binding; conditions: fluorescence emission
Excerpt: We believe that the steric strain in conformations that would allow the orbital alignment needed for conjugation may be detrimental to high quantum yield. 1-pyrenyldipyrrin ((4), PYDPY1), is more fluorescent and sterically less demanding than (3). […] Indeed, as a Zn^2+ sensor, (4) is unsurpassed in its effective concentration range with Zn^2+, thus providing a rarely found degree of sensitivity.
FIG. 5 is a graph of fluorescence response and Zn^2+ concentration and (4).

[2] = Fluorescence quantum yield of dipyrrins, free and with Zn^2+; conditions: even with Cd^2+; Table 1, FIG. 2
Excerpt: The conjugated (2) comprises a fluorophore with the […] moiety behaving as an ionphore. Benzaldehyde was used to form (2) because the properties shown by this type of sensing molecule with an benzene ring are representative of the general behavior of the family of compounds. In spite of the low fluorescence quantum yields of benzene, substituting benzene (ΦF=0.05±0.02) with a more intrinsically luminescent unit can make a great improvement in ΦF. An examples of another aromatic entity used instead of benzene is anthracene (ΦF0.27±0.03). When a […] attached to the benzene ring, the fluorescence quantum yield (ΦF) of (2) was very low and was determined to be 0.0011 due to the photo-induced electron transfer (PET), which is the intra-molecular quenching mechanism of an enamine group and an imine group in conjugate. When Zn^2+ bound with a […] moiety, PET was hindered and fluorescence emission intensity was recovered. […] Zn^2+, the fluorescence quantum yield was determined to be 0.07. […] (2), (3) and (4). The excitation wavelengths were 432, 475, 450 nm. The emission wavelengths were 496, 612, 497 and 599 nm for (2), (3) and (4). The ratio of fluorescence quantum yield [fluorescence quantum yield of metal ion/(2), (3) or (4) complex over fluorescence quantum yield of free ligand (10 μM)] was measured in acetonitrile.

[3] = Zn^2+ binding / complex formation (qualitative)

Question: Which Kd [1] does the source give for `C1=CC(=C(c2ccc[nH]2)c2ccc3ccc4cccc5ccc2c3c45)N=C1` [(4), 1-pyrenyldipyrrin] here?
Answer: 20 µM

Question: With `C1=CC(=C(c2ccccc2)c2ccc[nH]2)N=C1` [Compound (2), 5-phenyl-4,6-dipyrrin] as the compound, how does the “selectivity for Zn^2+ in comparison to other common metal ions” value [2] read?
Answer: Excellent selectivity

Question: What about the “binding of Zn^2+ (in words)” value [3] of the same compound?
Answer: found to bind Zn^2+
